Assays:
[1] = tested on: SNU1196/GR cells; experiment: MTT assay of anticancer agent susceptibility after inhibiting TAGLN2 expression; assay type: cell-based, human; conditions: for change in susceptibility to anticancer agent when TAGLN2 expression was inhibited: TAGLN2 siRNA transfection
Procedure: As siRNA for TAGLN2, sc-106633 produced by Santa Cruz Biotechnology was used, and as control siRNA, sc-37007 (Santa Cruz Biotechnology) was used. An anticancer agent (gemcitabine)-resistant biliary tract cancer cell line SNU1196/GR was transfected with each of control siRNA and TAGLN2 siRNA using a lipofectamine RNAiMAX transfection reagent (Invitrogen), and after 24 hours, was cultured for 72 hours by treating with gemcitabine at various concentrations. The cell line reacted with an MTT solution (Sigma-Aldrich) for 3 hours, and then absorbance at 570 nm was measured by treating with DMSO to determine whether the anticancer agent resistance was overcome through inhibition of TAGLN2 expression in the anticancer agent-resistant biliary tract cancer cell line. The inhibition of the expression by TAGLN2 siRNA was confirmed by western blotting after 72 hours of the transfection.

[2] = tested on: SNU1196/GR cells; experiment: MTT assay confirming resistance to anticancer agent (gemcitabine), resistant line; assay type: cell-based, human; conditions: SNU1196/GR vs SNU1196/P, 72 hours
Procedure: To create an anticancer agent-resistant biliary tract cancer cell line, a SNU1196 cell line was treated with gemcitabine at various concentrations and then subjected to MTT assay to calculate an IC50 value, and the cells were treated with gemcitabine at a concentration of IC50 for 3 days. After 3 days, when the cells were recovered after being cultured in a drug-free growth medium [10% fetal bovine serum (FBS; Hyclone)-containing RPMI1640 (Invitrogen Gibco)], the cells were recovered by treating with gemcitabine at double the IC50 concentration for 3 days, and an anticancer agent-resistant cell line (named SNU1196/GR) was established by repeating such a cell culturing procedure for 1 year. Whether the resistance to the anticancer agent was acquired was confirmed by MTT assay. Cells derived from biliary tract cancer cell line SNU1196 and anticancer agent-resistant biliary tract cancer cell line SNU1196/GR were attached to 96-well plates at 3×10^3 cells/well, and the following day, the cells were cultured for 72 hours by treating with gemcitabine at various concentrations. […] After 3 hours, the MTT solution was removed, and then absorbance was measured at 570 nm by adding dimethyl sulfoxide (DMSO) at 100 μl/well.

[3] = tested on: SNU1196/P cells; experiment: MTT assay with gemcitabine, parent cell line; assay type: cell-based; conditions: Homo sapiens, 10 nM stated to be lower than the IC50, read-out: IC50 concentration of parent cell line
Procedure: To create an anticancer agent-resistant biliary tract cancer cell line, a SNU1196 cell line was treated with gemcitabine at various concentrations and then subjected to MTT assay to calculate an IC50 value, and the cells were treated with gemcitabine at a concentration of IC50 for 3 days. After 3 days, when the cells were recovered after being cultured in a drug-free growth medium [10% fetal bovine serum (FBS; Hyclone)-containing RPMI1640 (Invitrogen Gibco)], the cells were recovered by treating with gemcitabine at double the IC50 concentration for 3 days, and an anticancer agent-resistant cell line (named SNU1196/GR) was established by repeating such a cell culturing procedure for 1 year. Whether the resistance to the anticancer agent was acquired was confirmed by MTT assay.
Cells derived from biliary tract cancer cell line SNU1196 and anticancer agent-resistant biliary tract cancer cell line SNU1196/GR were attached to 96-well plates at 3×10^3 cells/well, and the following day, the cells were cultured for 72 hours by treating with gemcitabine at various concentrations. […] After 3 hours, the MTT solution was removed, and then absorbance was measured at 570 nm by adding dimethyl sulfoxide (DMSO) at 100 μl/well.

Compound | change in susceptibility to anticancer agent when TAGLN2 expression was inhibited [1] | further results
O=c1[nH]cc(F)c(=O)[nH]1 [5-FU, 5-fluorourasil] | increased | –
N.N.O=C([O-])C1(C(=O)[O-])CCC1.[Pt+2] [carboplatin] | increased | –
N.N.[Cl][Pt][Cl] [cisplatin] | increased | –
C#Cc1cccc(Nc2ncnc3cc(OCCOC)c(OCCOC)cc23)c1 [erlotinib] | did not cause changes | –
COc1cc([C@@H]2c3cc4c(cc3[C@@H](O[C@@H]3O[C@@H]5CO[C@@H](C)O[C@H]5[C@H](O)[C@H]3O)[C@H]3COC(=O)[C@H]23)OCO4)cc(OC)c1O [etoposide] | did not cause changes | –
Nc1ccn([C@@H]2O[C@H](CO)[C@@H](O)C2(F)F)c(=O)n1 [gemcitabine] | – | IC50 value of SNU1196/GR cells for gemcitabine relative to parent cell line [2]: 100 times; IC50 [3]: > 10 nM; increase of anticancer agent susceptibility ([1]; co-treatment with TAGLN2 siRNA, gemcitabine 10 nM): 43%
CCc1c2c(nc3ccc(OC(=O)N4CCC(N5CCCCC5)CC4)cc13)-c1cc3c(c(=O)n1C2)COC(=O)[C@]3(O)CC [irinotecan] | did not cause changes | –
O=C1[O][Pt]2([NH][C@@H]3CCCC[C@H]3[NH]2)[O]C1=O [oxaliplatin] | increased | –
